Laboratory results reported in PubChem BioAssay AID1963981 (Molecular Pharmacology Branch, DTP, NCI, 2024).

Tested on: 354836-022-R-J1-PDC multicell spheroid viability
Test: Anticancer human tumor 354836-022-R-J1-PDC patient-derived head and neck squamous cell carcinoma cell line growth inhibition [PI3K]
Conditions: for IC50: curve of first compound; for viability, T/C: stronger effect = lower value
Outline: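 Complex 3D spheroids (cancer cells + endothelial HUVEC + mesenchymal stem cells); drug pairs of targeted agent x inavolisib/alpelisib/duvelisib/copanlisib; half-log series from ~Cmax, max 10 microM if Cmax unknown; endpoint viability.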

[1] = second compound 0.0316 µM, first compound 0.0316 µM
[2] = second compound 0.0316 µM, first compound 0.1 µM
[3] = second compound 0.1 µM, first compound 0.0316 µM
[4] = second compound 0.1 µM, first compound 0.1 µM
[5] = second compound 0.316 µM, first compound 0.0316 µM
[6] = second compound 0.316 µM, first compound 0.1 µM
[7] = second compound 1 µM, first compound 0.0316 µM
[8] = second compound 1 µM, first compound 0.1 µM
[9] = second compound 3.16 µM, first compound 0.0316 µM
[10] = second compound 3.16 µM, first compound 0.1 µM
[11] = second compound 10 µM, first compound 0.0316 µM
[12] = second compound 10 µM, first compound 0.1 µM
[13] = second compound 0.0316 µM, first compound 0.316 µM
[14] = second compound 0.0316 µM, first compound 1 µM
[15] = second compound 0.0316 µM, first compound 3.16 µM
[16] = second compound 0.0316 µM, first compound 10 µM
[17] = second compound 0.1 µM, first compound 0.316 µM
[18] = second compound 0.1 µM, first compound 1 µM
[19] = second compound 0.1 µM, first compound 3.16 µM
[20] = second compound 0.1 µM, first compound 10 µM
[21] = second compound 0.316 µM, first compound 0.316 µM
[22] = second compound 0.316 µM, first compound 1 µM
[23] = second compound 0.316 µM, first compound 3.16 µM
[24] = second compound 0.316 µM, first compound 10 µM
[25] = second compound 1 µM, first compound 0.316 µM
[26] = second compound 1 µM, first compound 1 µM
[27] = second compound 1 µM, first compound 3.16 µM
[28] = second compound 1 µM, first compound 10 µM
[29] = second compound 3.16 µM, first compound 0.316 µM
[30] = second compound 3.16 µM, first compound 1 µM
[31] = second compound 3.16 µM, first compound 3.16 µM
[32] = second compound 3.16 µM, first compound 10 µM
[33] = second compound 10 µM, first compound 0.316 µM
[34] = second compound 10 µM, first compound 1 µM
[35] = second compound 10 µM, first compound 3.16 µM
[36] = second compound 10 µM, first compound 10 µM
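Further: spheroids exposed to agents for seven days before the viability read.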

CC(=O)c1c(C)c2cnc(Nc3ccc(N4CCNCC4)cn3)nc2n(C2CCCC2)c1=O + Cc1nc(NC(=O)N2CCCC2C(N)=O)sc1-c1ccnc(C(C)(C)C(F)(F)F)c1 was tested, and the IC50 (second compound 0.0316 µM) was over 0.1 µM, the IC50 (second compound 0.1 µM) was over 0.1 µM and the IC50 (second compound 0.316 µM) was over 0.1 µM. It also gave an IC50 (second compound 1 µM) of over 0.1 µM, an IC50 (second compound 3.16 µM) of over 0.1 µM and an IC50 (second compound 10 µM) of under 0.000316 µM. It also gave a viability, T/C (second compound 0.0316 µM, first compound 0.000316 µM) of 105%, a viability, T/C (second compound 0.0316 µM, first compound 0.001 µM) of 96.8% and a viability, T/C (second compound 0.0316 µM, first compound 0.00316 µM) of 105%. For the same compound, the viability, T/C (second compound 0.0316 µM, first compound 0.01 µM) was 83.7%, the viability, T/C [1] was 117% and the viability, T/C [2] was 101%. It also gave a viability, T/C (second compound 0.1 µM, first compound 0.000316 µM) of 103%, a viability, T/C (second compound 0.1 µM, first compound 0.001 µM) of 91.8% and a viability, T/C (second compound 0.1 µM, first compound 0.00316 µM) of 92.9%. It also gave a viability, T/C (second compound 0.1 µM, first compound 0.01 µM) of 92.8%, a viability, T/C [3] of 89.4% and a viability, T/C [4] of 111%. For the same compound, the viability, T/C (second compound 0.316 µM, first compound 0.000316 µM) was 84.1%, the viability, T/C (second compound 0.316 µM, first compound 0.001 µM) was 83.5% and the viability, T/C (second compound 0.316 µM, first compound 0.00316 µM) was 85.8%. It also gave a viability, T/C (second compound 0.316 µM, first compound 0.01 µM) of 96.6%, a viability, T/C [5] of 86.4% and a viability, T/C [6] of 88.9%. It also gave a viability, T/C (second compound 1 µM, first compound 0.000316 µM) of 71%, a viability, T/C (second compound 1 µM, first compound 0.001 µM) of 89.5% and a viability, T/C (second compound 1 µM, first compound 0.00316 µM) of 74.6%. The viability, T/C (second compound 1 µM, first compound 0.01 µM) was 73.3%, the viability, T/C [7] was 73.5% and the viability, T/C [8] was 85.2%. For the same compound, the viability, T/C (second compound 3.16 µM, first compound 0.000316 µM) was 63%, the viability, T/C (second compound 3.16 µM, first compound 0.001 µM) was 72.1% and the viability, T/C (second compound 3.16 µM, first compound 0.00316 µM) was 67.8%. It also gave a viability, T/C (second compound 3.16 µM, first compound 0.01 µM) of 60%, a viability, T/C [9] of 59.4% and a viability, T/C [10] of 67.5%. It also gave a viability, T/C (second compound 10 µM, first compound 0.000316 µM) of 41%, a viability, T/C (second compound 10 µM, first compound 0.001 µM) of 37.3% and a viability, T/C (second compound 10 µM, first compound 0.00316 µM) of 35.7%. For the same compound, the viability, T/C (second compound 10 µM, first compound 0.01 µM) was 35.4%, the viability, T/C [11] was 34.9% and the viability, T/C [12] was 39.7%.
CCCS(=O)(=O)Nc1ccc(F)c(C(=O)c2c[nH]c3ncc(-c4ccc(Cl)cc4)cc23)c1F + Cc1nc(NC(=O)N2CCCC2C(N)=O)sc1-c1ccnc(C(C)(C)C(F)(F)F)c1 showed an IC50 (second compound 0.0316 µM) of 6.08 µM, an IC50 (second compound 0.1 µM) of 5.56 µM and an IC50 (second compound 0.316 µM) of 5.31 µM. The IC50 (second compound 1 µM) was 4.97 µM, the IC50 (second compound 3.16 µM) was 3.43 µM and the IC50 (second compound 10 µM) was under 0.0316 µM. For the same compound, the viability, T/C [1] was 96.5%, the viability, T/C [2] was 86.5% and the viability, T/C [13] was 97.5%. It also gave a viability, T/C [14] of 99.8%, a viability, T/C [15] of 76.6% and a viability, T/C [16] of 29.8%. The viability, T/C [3] was 101%, the viability, T/C [4] was 93.8% and the viability, T/C [17] was 96.1%. For the same compound, the viability, T/C [18] was 80.5%, the viability, T/C [19] was 80.2% and the viability, T/C [20] was 22.8%. The viability, T/C [5] was 83.7%, the viability, T/C [6] was 79.6% and the viability, T/C [21] was 75.2%. For the same compound, the viability, T/C [22] was 80%, the viability, T/C [23] was 75.6% and the viability, T/C [24] was 18.7%. The viability, T/C [7] was 80.1%, the viability, T/C [8] was 76.7% and the viability, T/C [25] was 72%. The viability, T/C [26] was 77%, the viability, T/C [27] was 70.6% and the viability, T/C [28] was 18%. For the same compound, the viability, T/C [9] was 53.5%, the viability, T/C [10] was 60.8% and the viability, T/C [29] was 63.1%. It also gave a viability, T/C [30] of 66.8%, a viability, T/C [31] of 50.7% and a viability, T/C [32] of 11.5%. For the same compound, the viability, T/C [11] was 39.6%, the viability, T/C [12] was 35.3% and the viability, T/C [33] was 35.6%. For the same compound, the viability, T/C [34] was 39.9%, the viability, T/C [35] was 32% and the viability, T/C [36] was 7.04%.
In the case of CNC(=O)c1ccc(N2C(=S)N(c3ccc(C#N)c(C(F)(F)F)c3)C(=O)C2(C)C)cc1F + Cc1nc(NC(=O)N2CCCC2C(N)=O)sc1-c1ccnc(C(C)(C)C(F)(F)F)c1, the IC50 (second compound 0.0316 µM) is reported as over 10 µM, the IC50 (second compound 0.1 µM) is reported as over 10 µM and the IC50 (second compound 0.316 µM) is reported as over 10 µM. The IC50 (second compound 1 µM) was over 10 µM, the IC50 (second compound 3.16 µM) was over 10 µM and the IC50 (second compound 10 µM) was under 0.0316 µM. For the same compound, the viability, T/C [1] was 108%, the viability, T/C [2] was 92.4% and the viability, T/C [13] was 100%. For the same compound, the viability, T/C [14] was 96%, the viability, T/C [15] was 123% and the viability, T/C [16] was 108%. For the same compound, the viability, T/C [3] was 95.5%, the viability, T/C [4] was 93.4% and the viability, T/C [17] was 111%. The viability, T/C [18] was 87.9%, the viability, T/C [19] was 109% and the viability, T/C [20] was 99.2%. The viability, T/C [5] was 86.8%, the viability, T/C [6] was 99.6% and the viability, T/C [21] was 89.1%. It also gave a viability, T/C [22] of 96.7%, a viability, T/C [23] of 98.2% and a viability, T/C [24] of 88%. It also gave a viability, T/C [7] of 93.5%, a viability, T/C [8] of 84.5% and a viability, T/C [25] of 76.3%. For the same compound, the viability, T/C [26] was 98.7%, the viability, T/C [27] was 87% and the viability, T/C [28] was 82.4%. The viability, T/C [9] was 54.5%, the viability, T/C [10] was 71.1% and the viability, T/C [29] was 63.3%. For the same compound, the viability, T/C [30] was 71.3%, the viability, T/C [31] was 68% and the viability, T/C [32] was 72.1%. It also gave a viability, T/C [11] of 35.1%, a viability, T/C [12] of 35% and a viability, T/C [33] of 35.7%. It also gave a viability, T/C [34] of 39.8%, a viability, T/C [35] of 48.9% and a viability, T/C [36] of 37.5%.
